Measurements from ChEMBL document CHEMBL6121051, “Dendritic Antifungal Peptides as Potent Agents against Drug-Resistant Candida albicans and Biofilm” (J Med Chem, 2025).
In brackets after ≈: the same amount, converted by molar mass. Activity calls are given as the source filed them. The rule behind the calls is not given here. Positions of bridges follow the written chain, without caps; N, C: chain ends. Residues, ends and D or L forms follow the SMILES beside them. Groups on a side chain read outwards from the residue. Chains are numbered I, II in the order given. *: point of attachment. Lauroyl = CCCCCCCCCCCC(=O)*; Octanoyl = CCCCCCCC(=O)*; Butyryl = CCCC(=O)*

Assays:
Candida albicans [1] = assay: Antifungal activity against Candida albicans SP 3902 assessed as inhibition of fungal growth incubated for 48 hrs; format: functional
[2] = Toxicity against human RBC assessed as hemolysis rate at 128 ug/ml incubated for 1 hr; format: cell-based, Erythrocyte; details: red blood cells (RBC), dose 128 µg/ml, read-out: Activity
Candida albicans [3] = assay: Antifungal activity against Candida albicans 17546 assessed as inhibition of fungal growth incubated for 48 hrs; format: functional
Candida albicans [4] = assay: Antifungal activity against Candida albicans SP 3903 assessed as inhibition of fungal growth incubated for 48 hrs; format: functional
Candida albicans [5] = assay: Antifungal activity against Candida albicans SP 3931 assessed as inhibition of fungal growth incubated for 48 hrs; format: functional
Candida albicans [6] = assay: Antifungal activity against Candida albicans 2.3989 assessed as inhibition of fungal growth incubated for 48 hrs; format: functional
Candida albicans [7] = assay: Antifungal activity against Candida albicans 14936 assessed as inhibition of fungal growth incubated for 48 hrs; format: functional
[8] = Cytotoxicity against human HEK293T cells assessed as cell survival rate at 128 ug/ml incubated for 4 hrs by MTT assay; format: toxicity, cell-based, HEK-293T; details: dose 128 µg/ml, read-out: Activity
Candida albicans [9] = assay: Antifungal activity against fluconazole-resistant Candida albicans 56214 assessed as inhibition of fungal growth incubated for 48 hrs; format: functional
Candida albicans [10] = assay: Antifungal activity against Candida albicans 58288 assessed as inhibition of fungal growth incubated for 48 hrs; format: functional
Candida albicans [11] = assay: Antifungal activity against Candida albicans cgmcc 2.2086 assessed as inhibition of fungal growth incubated for 48 hrs; format: functional
HEK-293T = assay: Cytotoxicity against human HEK293T cells assessed as cell viability at 8 to 128 ug/ml incubated for 4 hrs by MTT assay; format: toxicity, cell-based; details: dose 8-128 µg/ml
[12] = Cytotoxicity against mouse RAW264.7 cells assessed as cell survival rate at 128 ug/ml incubated for 4 hrs by MTT assay; format: toxicity, cell-based; details: dose 128 µg/ml, read-out: Activity
Candida albicans [13] = assay: Antifungal activity against fluconazole-resistant Candida albicans 56214 infected in ICR mouse assessed as wound healing with appearance of new skin tissue at 1 mg/ml administered topically bid for 3 days starting at 12 hrs post-infection and measured for 6 days; format: functional, organism-based; details: time 6.0 day
Candida albicans [14] = assay: Antifungal activity against fluconazole-resistant Candida albicans 56214 infected in ICR mouse assessed as reduction in TNF-alpha expression in skin wound at 1 mg/ml administered topically bid for 3 days starting at 12 hrs post-infection and measured after 7 days by immunofluorescence analysis; format: functional, organism-based; details: time 7.0 day
Candida albicans [15] = assay: Antifungal activity against fluconazole-resistant Candida albicans 56214 infected in ICR mouse assessed as reduction in severity of skin infection at 1 mg/ml administered topically bid for 3 days starting at 12 hrs post-infection and measured after 7 days by PAS staining based analysis; format: functional, organism-based; details: time 7.0 day
Candida albicans [16] = assay: Antifungal activity against fluconazole-resistant Candida albicans 56214 infected in ICR mouse assessed as elimination of fungal hyphae on the infected skin at 1 mg/ml administered topically bid for 3 days starting at 12 hrs post-infection and measured after 7 days by PAS staining; format: functional, organism-based; details: time 7.0 day
Candida albicans [17] = assay: Antifungal activity against fluconazole-resistant Candida albicans 56214 infected in ICR mouse assessed as reduction in IL-6 expression in skin wound at 1 mg/ml administered topically bid for 3 days starting at 12 hrs post-infection and measured after 7 days by immunofluorescence analysis; format: functional, organism-based; details: time 7.0 day
Candida albicans [18] = assay: Antifungal activity against fluconazole-resistant Candida albicans 56214 infected in ICR mouse assessed as reduction in oxidative stress by measuring decrease in ROS accumulation in skin wounds at 1 mg/ml administered topically bid for 3 days starting at 12 hrs post-infection and measured after 7 days by fluorescence staining based analysis; format: functional, organism-based; details: time 7.0 day

Compound	MIC (Candida albicans [1]) [µM]	hemolysis at 1 h, 128 ug/ml [2] [%]	MIC (Candida albicans [3]) [µM]	MIC (Candida albicans [4]) [µM]	MIC (Candida albicans [5]) [µM]	MIC (Candida albicans [6]) [µM]	MIC (Candida albicans [7]) [µM]	viability at 4 h, 128 ug/ml [8] [%]	MIC (Candida albicans [9]) [µM]	MIC (Candida albicans [10]) [µM]	MIC (Candida albicans [11]) [µM]	Activity (HEK-293T)	viability at 4 h, 128 ug/ml [12] [%]	Activity (Candida albicans [13])	Activity (Candida albicans [14])	Activity (Candida albicans [15])	Activity (Candida albicans [16])	Activity (Candida albicans [17])	Activity (Candida albicans [18])
CCCCCCCCCCCC(=O)NCC(=O)NCC(=O)NCC(=O)N[C@@H](CCCCNC(=O)[C@@H]1CCCN1C(=O)[C@H](CCCNC(=N)N)NC(=O)[C@@H]1CCCN1C(=O)[C@H](CCCNC(=N)N)NC(=O)[C@@H]1CCCN1C(=O)[C@@H](N)CCCNC(=N)N)C(=O)N[C@@H](CCCCNC(=O)[C@@H]1CCCN1C(=O)[C@H](CCCNC(=N)N)NC(=O)[C@@H]1CCCN1C(=O)[C@H](CCCNC(=N)N)NC(=O)[C@@H]1CCCN1C(=O)[C@@H](N)CCCNC(=N)N)C(=O)N[C@@H](CCCNC(=N)N)C(=O)N1CCC[C@H]1C(=O)N[C@@H](CCCNC(=N)N)C(=O)N1CCC[C@H]1C(=O)N[C@@H](CCCNC(=N)N)C(=O)N1CCC[C@H]1C(N)=O (I: Lauroyl-GGGKKRPRPRP-NH2 / II: H-RPRPRP / III: H-RPRPRP; amide I:4-II:C, I:5-III:C)	8 (≈ 23.3 µg/mL)	< 2	32 (≈ 93 µg/mL)	8 (≈ 23.3 µg/mL)	32 (≈ 93 µg/mL)	64 (≈ 186 µg/mL)	16 (≈ 46.5 µg/mL)	95	8 (≈ 23.3 µg/mL)	32 (≈ 93 µg/mL)	16 (≈ 46.5 µg/mL)	Non-toxic	50						
CCCC(=O)NCC(=O)NCC(=O)NCC(=O)N[C@@H](CCCCNC(=O)[C@@H]1CCCN1C(=O)[C@H](CCCNC(=N)N)NC(=O)[C@@H]1CCCN1C(=O)[C@@H](N)CCCNC(=N)N)C(=O)N[C@@H](CCCCNC(=O)[C@@H]1CCCN1C(=O)[C@H](CCCNC(=N)N)NC(=O)[C@@H]1CCCN1C(=O)[C@@H](N)CCCNC(=N)N)C(=O)N[C@@H](CCCNC(=N)N)C(=O)N1CCC[C@H]1C(=O)N[C@@H](CCCNC(=N)N)C(=O)N1CCC[C@H]1C(N)=O (Butyryl-GGGK([Pro-Arg-Pro-Arg])K([Pro-Arg-Pro-Arg])RPRP-NH2)	> 128	< 2	> 128	> 128	> 128	> 128	> 128	95	> 128	> 128	> 128	Non-toxic							
CCCCCCCCCCCC(=O)NCC(=O)NCC(=O)NCC(=O)N[C@@H](CCCCNC(=O)[C@@H]1CCCN1C(=O)[C@H](CCCNC(=N)N)NC(=O)[C@@H]1CCCN1C(=O)[C@@H](N)CCCNC(=N)N)C(=O)N[C@@H](CCCCNC(=O)[C@@H]1CCCN1C(=O)[C@H](CCCNC(=N)N)NC(=O)[C@@H]1CCCN1C(=O)[C@@H](N)CCCNC(=N)N)C(=O)N[C@@H](CCCNC(=N)N)C(=O)N1CCC[C@H]1C(=O)N[C@@H](CCCNC(=N)N)C(=O)N1CCC[C@H]1C(N)=O (Lauroyl-GGGK([Pro-Arg-Pro-Arg])K([Pro-Arg-Pro-Arg])RPRP-NH2)	32 (≈ 68.7 µg/mL)	< 2	32 (≈ 68.7 µg/mL)	64 (≈ 137 µg/mL)	64 (≈ 137 µg/mL)	64 (≈ 137 µg/mL)	32 (≈ 68.7 µg/mL)	95	64 (≈ 137 µg/mL)	64 (≈ 137 µg/mL)	16 (≈ 34.3 µg/mL)	Non-toxic							
OC(Cn1cncn1)(Cn1cncn1)c1ccc(F)cc1F [FLUCONAZOLE]	4 (≈ 1.23 µg/mL)		2 (≈ 0.613 µg/mL)	2 (≈ 0.613 µg/mL)	2 (≈ 0.613 µg/mL)	4 (≈ 1.23 µg/mL)	2 (≈ 0.613 µg/mL)		> 128	8 (≈ 2.45 µg/mL)	4 (≈ 1.23 µg/mL)								
CCCCCCCC(=O)NCC(=O)NCC(=O)NCC(=O)N[C@@H](CCCCNC(=O)[C@@H]1CCCN1C(=O)[C@H](CCCNC(=N)N)NC(=O)[C@@H]1CCCN1C(=O)[C@H](CCCNC(=N)N)NC(=O)[C@@H]1CCCN1C(=O)[C@@H](N)CCCNC(=N)N)C(=O)N[C@@H](CCCCNC(=O)[C@@H]1CCCN1C(=O)[C@H](CCCNC(=N)N)NC(=O)[C@@H]1CCCN1C(=O)[C@H](CCCNC(=N)N)NC(=O)[C@@H]1CCCN1C(=O)[C@@H](N)CCCNC(=N)N)C(=O)N[C@@H](CCCNC(=N)N)C(=O)N1CCC[C@H]1C(=O)N[C@@H](CCCNC(=N)N)C(=O)N1CCC[C@H]1C(=O)N[C@@H](CCCNC(=N)N)C(=O)N1CCC[C@H]1C(N)=O (I: Octanoyl-GGGKKRPRPRP-NH2 / II: H-RPRPRP / III: H-RPRPRP; amide I:4-II:C, I:5-III:C)	16 (≈ 45.6 µg/mL)	< 2	4 (≈ 11.4 µg/mL)	8 (≈ 22.8 µg/mL)	16 (≈ 45.6 µg/mL)	64 (≈ 182 µg/mL)	4 (≈ 11.4 µg/mL)	95	8 (≈ 22.8 µg/mL)	8 (≈ 22.8 µg/mL)	2 (≈ 5.7 µg/mL)	Non-toxic							
C[C@@H]1[C@H](O)[C@@H](C)/C=C/C=C/C=C/C=C/C=C/C=C/C=C/[C@H](O[C@@H]2O[C@H](C)[C@@H](O)[C@H](N)[C@@H]2O)C[C@@H]2O[C@](O)(C[C@@H](O)C[C@@H](O)[C@H](O)CC[C@@H](O)C[C@@H](O)CC(=O)O[C@H]1C)C[C@H](O)[C@H]2C(=O)O														Active	Active	Active	Active	Active	Active
CCCCCCCC(=O)NCC(=O)NCC(=O)NCC(=O)N[C@@H](CCCCNC(=O)[C@@H]1CCCN1C(=O)[C@H](CCCNC(=N)N)NC(=O)[C@@H]1CCCN1C(=O)[C@@H](N)CCCNC(=N)N)C(=O)N[C@@H](CCCCNC(=O)[C@@H]1CCCN1C(=O)[C@H](CCCNC(=N)N)NC(=O)[C@@H]1CCCN1C(=O)[C@@H](N)CCCNC(=N)N)C(=O)N[C@@H](CCCNC(=N)N)C(=O)N1CCC[C@H]1C(=O)N[C@@H](CCCNC(=N)N)C(=O)N1CCC[C@H]1C(N)=O (Octanoyl-GGGK([Pro-Arg-Pro-Arg])K([Pro-Arg-Pro-Arg])RPRP-NH2)	> 128	< 2	> 128	> 128	> 128	> 128	> 128	95	> 128	> 128	> 128	Non-toxic							
